From patent US8883135B2, “Crystalline form of a pyridyl-piperazinyl hepatitis C virus inhibitor” (Theravance Biopharma R&D IP, LLC, priority 2012, dated 2014) come the findings set out here.

Data set [1] concerns HCV genotype 1b replicon cell line (Huh7 cell background). Nature of the data set: HCV Genotype 1b Replicon Assay. Format: cell-based. To be noted: Hepatitis C virus, Huh-7, luciferase activity readout, 48 hours incubation. The source says:
The HCV genotype 1b replicon cell line was obtained from Apath LLC (Brooklyn, N.Y.) (APC144; Huh7 cell background). This subgenomic replicon contains the N-terminus of the HCV core protein fused to the neomycin-resistance selectable marker. The EMCV IRES lies downstream and drives expression of humanized Renilla luciferase fused to the non-structural proteins NS3-NS5B. This cell line was used to determine compound potency using the luciferase activity readout as a measurement of compound inhibition of replicon levels.
Cells were grown at 37° C. in a 5% CO2 humidified incubator in DMEM (Invitrogen) with 10% FBS (HyClone), 1×NEAA (Invitrogen), 1× Pen-Strep (Invitrogen), and 500 μg/mL G418 (Invitrogen). On day 1 of the assay, cells were plated at 10,000 cells/well in white 96-well tissue culture plates (Costar) in 200 μL media lacking G418. […] At the end of the incubation period, media and compound were removed from the plates and the luciferase activity was determined using Promega Renilla-Glo reagents.
To analyze the data, the luciferase activity was plotted vs. the compound concentration, and EC50 values were determined from a 4-parameter robust fit model with the GraphPad Prism software package (GraphPad Software, Inc., San Diego, Calif.). Results are expressed as the negative decadic logarithm of the EC50 value, pEC50. […]
Background: In antiviral work, replicon cells carry a viral genome segment that copies itself.

Data set [2] deals with HCV replicon mutants genotype 1a Y93H, M28T, and Q30E. Kind of data set: Replicon assays against resistant mutants (transient transfection, Huh-LUNET cells). In kind it is cell-based. Conditions: Hepatitis C virus, read-out: pEC50 (converted). As for the experimental part:
Potencies of test compounds against additional mutations of interest were determined using transient transfection assays. These mutants included genotype 1a Y93H, M28T, and Q30E. The mutation was first introduced into the parental plasmid by site-directed mutagenesis. The replicon plasmid was then linearized and in vitro transcribed to RNA. The RNA was used to transiently transfect Huh-LUNET cells (obtained from ReBLikon GmbH, Schriesheim, Germany) by electroporation, and the potencies of test compounds against the mutants were determined as previously described.

In data set [3] the test system is HCV replicon resistant mutants: genotype 1b L31V and Y93H; genotype 1a Q30R and L31V. Nature of the data set: Replicon Assays Against Resistant Mutants (stably transfected Huh7 cells). In kind it is cell-based. Conditions: Hepatitis C virus, Huh-7, read-out: pEC50 (converted). As to the method: To create replicon cells with resistant mutations of interest, the mutation was first introduced into the parental plasmid by site-directed mutagenesis. Mutations in genotype 1b included L31V and Y93H. Mutations in genotype 1a included Q30R and L31V. The replicon plasmid was then linearized and in vitro transcribed to RNA. The RNA was used to stably transfect Huh7 cells by electroporation, and new cell lines were selected with 500 μg/mL G418. Potencies of test compounds against these mutant cell lines were determined as previously described above for the HCV Genotype 1b and 1a replicon assays.

Data set [4] has as its system HCV genotype 1a replicon cell line (Huh7.5 cell background). Nature of the data set: HCV Genotype 1a Replicon Assay. In kind it is cell-based. Conditions: Hepatitis C virus, NS3-specific protease activity in lysates, 48 or 72 hours incubation. As for the experimental part: The HCV genotype 1a replicon cell line was obtained from Apath LLC (APC89; Huh7.5 cell background). This subgenomic replicon contains the N-terminus of the HCV core protein fused to the neomycin-resistance selectable marker. The EMCV IRES lies downstream and drives expression of the non-structural proteins NS3-NS5B. Compound potencies were determined using the NS3-specific protease activity in lysates as a measurement of compound inhibition of replicon levels.
Cells were grown at 37° C. in a 5% CO2 humidified incubator in DMEM (Invitrogen) with 10% FBS (HyClone), 1×NEAA (Invitrogen), 1× Pen-Strep (Invitrogen), and 850 μg/mL G418 (Invitrogen). On day 1 of the assay, cells were plated at 15,000 cells/well in black 96-well tissue culture plates (Costar) in 200 μL media lacking G418. […]
To determine the NS3-specific protease activity in lysates, the cells were lysed at room temperature in 50 μL/well of 50 mM Hepes pH 7.5, 150 mM NaCl, 15% Glycerol, 0.15% Triton X-100, 10 mM DTT for 20 minutes with shaking. […] Protease activity was determined by measuring fluorescence (Excitation: 340 nm; Emission: 509 nm).
To analyze the data, the fluorescence was plotted vs. the compound concentration, and EC50 values were determined from a 4-parameter robust fit model using GraphPad Prism software.

The nature of data set [5]: Dynamic Moisture Sorption Assessment. Conditions: for deliquescence: exposed to up to about 90% relative humidity at room temperature; for change in solid form (powder diffraction pattern) after two sorption/desorption cycles: two DMS cycles, PXRD compared with the starting material. In kind it is physicochemical. As to the method:
Dynamic moisture sorption (DMS) measurements were performed for each crystalline form using a VTI atmospheric microbalance, SGA-100 system (VTI Corp., Hialeah, Fla. 33016). A weighed sample was used and the humidity was lowest possible value (close to 0% RH) at the start of the analysis. […] The DMS run was performed isothermally at 25° C.

Where [6] appears, read: humidity range of 2% to 90% relative humidity at room temperature.

For the molecule `CNC(=O)N1C[C@@H](C)N(c2ccc(C(=O)Nc3ccc(-c4ccc(-c5c[nH]c([C@@H]6CCCN6C(=O)[C@@H](NC(=O)OC)C(C)C)n5)cc4)c(OC(F)(F)F)c3)cn2)C[C@@H]1C` [Compound 1, ((S)-1-{(S)-2-[4-(4′-{[6-((2R,5S)-2,5-dimethyl-4-methylcarbamoyl-piperazin-1-yl)-pyridine-3-carbonyl]-amino}-2′-trifluoromethoxy-biphenyl-4-yl)-1H-imidazol-2-yl]-pyrrolidine-1-carbonyl}-2-methyl-propyl)-carbamic acid methyl ester], the EC50 in data set [1] was at most 0.01 nM; in data set [2] it was at most 10 nM; in data set [3], at most 10 nM; in data set [4], at most 0.1 nM.

`CNC(=O)N1C[C@@H](C)N(c2ccc(C(=O)Nc3ccc(-c4ccc(-c5c[nH]c([C@@H]6CCCN6C(=O)[C@@H](NC(=O)OC)C(C)C)n5)cc4)c(OC(F)(F)F)c3)cn2)C[C@@H]1C` [crystalline compound 1, Crystalline ((S)-1-{(S)-2-[4-(4′-{[6-((2R,5S)-2,5-Dimethyl-4-methylcarbamoyl-piperazin-1-yl)-pyridine-3-carbonyl]-amino}-2′-trifluoromethoxy-biphenyl-4-yl)-1H-imidazol-2-yl]-pyrrolidine-1-carbonyl}-2-methyl-propyl)-carbamic acid methyl ester]: in data set [5], the deliquescence entry was “neither crystalline compound 1 nor the anhydrous and hydrate forms of the crystalline dihydrochloride salt of compound 1 is deliquescent”; the “change in solid form (powder diffraction pattern) after two sorption/desorption cycles” value is on record as “no change in form”. Also, the “weight gain (dynamic moisture sorption)” value in data set [5] (setting [6]) was “about 3%”. The “weight gain (dynamic moisture sorption)” value in data set [5] (humidity range of 2% to 90% relative humidity at room temperature, listed as Crystalline compound 1) is reported as at most 3%.

Take `CNC(=O)N1C[C@@H](C)N(c2ccc(C(=O)Nc3ccc(-c4ccc(-c5c[nH]c([C@@H]6CCCN6C(=O)[C@@H](NC(=O)OC)C(C)C)n5)cc4)c(OC(F)(F)F)c3)cn2)C[C@@H]1C.Cl.Cl.O` [monohydrate form, Crystalline ((S)-1-{(S)-2-[4-(4′-{[6-((2R,5S)-2,5-Dimethyl-4-methylcarbamoyl-piperazin-1-yl)-pyridine-3-carbonyl]-amino}-2′-trifluoromethoxy-biphenyl-4-yl)-1H-imidazol-2-yl]-pyrrolidine-1-carbonyl}-2-methyl-propyl)-carbamic acid methyl ester dihydrochloride Monohydrate Form]: in data set [5] (at 90% relative humidity during the initial adsorption segment), the “weight gain (dynamic moisture sorption)” value is given as “about 2%”. Further, in data set [5], the deliquescence entry was “neither crystalline compound 1 nor the anhydrous and hydrate forms of the crystalline dihydrochloride salt of compound 1 is deliquescent”; the “change in solid form (powder diffraction pattern) after two sorption/desorption cycles” value is “no change in form”.

Consider “Crystalline ((S)-1-{(S)-2-[4-(4′-{[6-((2R,5S)-2,5-Dimethyl-4-methylcarbamoyl-piperazin-1-yl)-pyridine-3-carbonyl]-amino}-2′-trifluoromethoxy-biphenyl-4-yl)-1H-imidazol-2-yl]-pyrrolidine-1-carbonyl}-2-methyl-propyl)-carbamic acid methyl ester dihydrochloride Anhydrous Form [anhydrous dihydrochloride salt]”, for which, in data set [5], the deliquescence result is “neither crystalline compound 1 nor the anhydrous and hydrate forms of the crystalline dihydrochloride salt of compound 1 is deliquescent”; the “change in solid form (powder diffraction pattern) after two sorption/desorption cycles” value was “no change in form”. Moreover, the “weight gain (dynamic moisture sorption)” value in data set [5] (setting [6]) is listed as “about 0.8%”.
